Measured values taken from article PMC8829872 (Cancer chemotherapy and pharmacology, 2022).
Read-outs that look alike come from different tables or passages of the source.

Columns and labels:
[1] = Extensive tissue distribution study in CT26 tumor-bearing mice; assay type: in vivo, Balb/c mice; conditions: Balb/c, mouse, 75 mg/kg PO; for AUC(0-t): 0-1440 min, read-out: AUC0-t (converted); for Cmax: read-out: Cmax; for Tmax: read-out: Tmax (converted)
Protocol: Mice were injected subcutaneously on the right flank with 1x10^6 CT26 cells, a murine colorectal carcinoma cell line from BALB/c mice,obtained from ATCC (Manassas, VA). Cells were cultured in RPMI-1640 medium with L-glutamine (BioWhittaker Inc., Walkersville, MD), containing 10% heat-inactivated fetal bovine serum and 100 units of penicillin/mL and 100 μg/mL of streptomycin (Biofluids, BioSource, Rockville, MD) in an incubator with 95% air, 5% CO2, and 95% humidity at 37 °C. Cells were verified and checked for mycoplasm by IDEXX BioAnalytics (Westbrook, ME). Implantation and tumor growth were monitored twice weekly with a digital caliper. When tumors were approximately 200 mm^3, mice were stratified into time groups (N=3) primarily using body weight and secondarily using tumor size. Mice were administered 75 mg/kg PO through oral gavage. […] Bone marrow was obtained by flushing both femurs from each mouse with PBS, followed by centrifugation at 12,000 x g and removal of the supernatant. Protein analysis of the resuspended pellet was conducted using the Bio-Rad protein assay following the manufacturer’s instructions with bovine serum albumin as the standard. Blood was processed to obtain plasma and urine and feces were collected as described above.
For tissue and tumor analysis, samples were homogenized with 3 parts PBS (v/g) and further diluted with control plasma and concentrations determined from calibration curves prepared in control plasma.

[2] = generally reported, cited from earlier work
[3] = 1 h after 25 mg/kg IP; cited from earlier work
[4] = in vivo; conditions: Balb/c, mouse
Protocol: The vehicle for all groups was 10% DMSO, 40% propylene glycol, and 50% dH2O. […] Mice were euthanized by CO2 inhalation and the following tissues collected: blood, liver, kidney, lung, skeletal muscle, and brain.
Duplicate standard curves with calibrators consisting of 0.3, 1, 3, 10, 30 100, 300, and 1,000 ng/mL, in addition to blank plasma, were prepared fresh on days of analysis using control Balb/c mouse plasma (Innovative Research, Novi, MI). QCs were prepared in bulk and stored at −80 °C, with concentrations of 0.8 (QCL), 20 (QCM), and 800 ng/mL (QCH). […] The injection volume was 3 μL. […] Curve fitting was accomplished through linear regression with 1/y^2 weighting. Semi-quantitation of metabolites was accomplished by reporting IS normalized metabolite response.
Noncompartmental (NC) PK was determined using GraphPad Prism (San Diego, CA) using the linear trapezoidal method and Bailer method of AUC determination for estimates of exposure in plasma, RBC, tumors, and tissues [24]. PK parameters or analysis requiring dose were adjusted for the actual dose as determined using measurements of dosing solution. Dose-normalized plasma exposures, Cmax and AUC, of PO treated groups of the dose linearity studies were compared using ANOVA tests to determine dose linearity.
Tissue partition coefficients (PTissue) and RBC partitioning (PRBC) were calculated using Eq. (1) and tested among PO treated groups using ANOVA tests.
The resulting concentrations were multiplied by the volume or weight to convert to a total amount and then divided by 3 to account for the number of mice per cage. These amounts were then divided by the average total amount of drug administered to calculate the percent excreted by urine and feces, see Eq. (2). Renal clearance (ClR) was calculated by dividing the excreted amount by the plasma AUC, see Eq. (3) [25].
When available, plasma metabolite data was used to determine semi-quantitative exposure as well as metabolic ratios, using Eq. (4). The MR among PO treated groups in the dose linearity studies were compared using ANOVA testing. Metabolite presence was also analyzed in urine and feces.

AUC(0-t) ([1]; Fat): 16300 ng·h/mL
Cmax ([1]; Fat): 9200 ng/mL
Tmax ([1]; Fat): 30 min
AUC(0-inf) ([1]; Heart): 45600 ng·h/mL
AUC(0-t) ([1]; Heart): 45600 ng·h/mL
Cmax ([1]; Heart): 19400 ng/mL
Tmax ([1]; Heart): 15 min
AUC(0-inf) ([1]; Liver): 293000 ng·h/mL
AUC(0-t) ([1]; Liver): 293000 ng·h/mL
Cmax ([1]; Liver): 114000 ng/mL
Tmax ([1]; Liver): 15 min
AUC(0-inf) ([1]; Non-draining Lymph Node): 38800 ng·h/mL
AUC(0-t) ([1]; Non-draining Lymph Node): 38800 ng·h/mL
Cmax ([1]; Non-draining Lymph Node): 16100 ng/mL
Tmax ([1]; Non-draining Lymph Node): 15 min
AUC(0-inf) ([1]; Small Intestine): 332000 ng·h/mL
AUC(0-t) ([1]; Small Intestine): 331000 ng·h/mL
Cmax ([1]; Small Intestine): 204000 ng/mL
Tmax ([1]; Small Intestine): 15 min
AUC(0-inf) ([1]; Spinal Cord): 2450 ng·h/mL
AUC(0-t) ([1]; Spinal Cord): 2420 ng·h/mL
Cmax ([1]; Spinal Cord): 1010 ng/mL
Tmax ([1]; Spinal Cord): 15 min
AUC(0-inf) ([1]; Spleen): 35200 ng·h/mL
AUC(0-t) ([1]; Spleen): 35200 ng·h/mL
Cmax ([1]; Spleen): 14200 ng/mL
Tmax ([1]; Spleen): 15 min
AUC(0-inf) ([1]; Thymus): 25800 ng·h/mL
AUC(0-t) ([1]; Thymus): 25800 ng·h/mL
Cmax ([1]; Thymus): 9630 ng/mL
Tmax ([1]; Thymus): 5 min
half-life [4]: 94.4 to 130 min
AUC(0-inf) ([4]; iv, 10 mg/kg): 5620 ng·h/mL
CL renal ([4]; iv, 10 mg/kg): 0.661 mL/min/kg
Cmax ([4]; iv, 10 mg/kg): 7040 ng/mL
Tmax ([4]; iv, 10 mg/kg): 5 min
Vd ([4]; iv, 10 mg/kg): 4.92 L/kg
half-life ([4]; iv, 10 mg/kg): 98.6 min
AUC(0-inf) ([4]; po, 2 mg/kg): 423 ng·h/mL
CL renal ([4]; po, 2 mg/kg): 1.97 mL/min/kg
Cmax ([4]; po, 2 mg/kg): 160 ng/mL
Tmax ([4]; po, 2 mg/kg): 60 min
bioavailability ([4]; po, 2 mg/kg): 45.7%
half-life ([4]; po, 2 mg/kg): 104 min
AUC(0-inf) ([4]; po, 7.5 mg/kg): 2400 ng·h/mL
CL renal ([4]; po, 7.5 mg/kg): 1.88 mL/min/kg
Cmax ([4]; po, 7.5 mg/kg): 1460 ng/mL
Tmax ([4]; po, 7.5 mg/kg): 15 min
bioavailability ([4]; po, 7.5 mg/kg): 58.8%
half-life ([4]; po, 7.5 mg/kg): 130 min
AUC(0-inf) ([4]; po, 20 mg/kg): 9630 ng·h/mL
CL renal ([4]; po, 20 mg/kg): 1.53 mL/min/kg
Cmax ([4]; po, 20 mg/kg): 4960 ng/mL
Tmax ([4]; po, 20 mg/kg): 15 min
bioavailability ([4]; po, 20 mg/kg): 85.5%
half-life ([4]; po, 20 mg/kg): 94.4 min
AUC(0-inf) ([4]; po, 75 mg/kg): 41600 ng·h/mL
CL renal ([4]; po, 75 mg/kg): 1.14 mL/min/kg
Cmax ([4]; po, 75 mg/kg): 12000 ng/mL
Tmax ([4]; po, 75 mg/kg): 15 min
bioavailability ([4]; po, 75 mg/kg): 95.2%
half-life ([4]; po, 75 mg/kg): 116 min
SMILES: C[C@@H]1COCCN1c1cc(C2([S@](C)(=N)=O)CC2)nc(-c2cc[nH]c3nccc2-3)n1 [AZD6738]
cell based IC50s [2]: below 413 ng/mL
IC50 ([2]; read-out: cell based IC50s): < 1000 nM
brain concentration [3]: ~200 ng/mL
